From US9422312B2, “Azabenzimidazole derivatives” (Boehringer Ingelheim International GmbH, priority 2014, dated 2016)

Target: Activated AMPK complex 1 (containing alpha1beta1gamma1) (Homo sapiens (Human), UniProt Q13131+Q9Y478)
Experiment: in vitro AMPK activation assay (ADP-Glo Kinase Assay)
Type: biochemical
Conditions: 1 μM peptide substrate, 30 μM ATP, 60 min, room temperature, luminescence
Text: Activated AMPK complex 1 (containing alpha1beta1gamma1) was obtained from baculovirus expression system. The gene encoding AMPK alpha1 was cloned into the pACG2T vector (BD Biosciences) to obtain a N-terminal Glutathion S transferase (GST)-fusion protein. The genes encoding AMPK beta 1 and gamma1 were cloned into the p2Bac dual multiple cloning site vector (Invitrogen) with beta1 under the control of the p10 promoter and gamma1 under the control of the PH promoter. The transfer vectors containing AMPK were co-transfected individually with AcPNV BacMagic-3 DNA (EMD Millipore) in Sf9 cells and the recombinant baculoviruses were harvested after 5 days, followed by 3 rounds of amplification of the virus stock in Sf9 cells. AMPK (alpha1beta1gamma1) was expressed in High Five 5 cells by co-infection of recombinant alpha1 virus and recombinant beta1/gamma1 virus for 72 h at 27° C. Cells were harvested by centrifugation and lysed by 3 freeze/thaw cycles in PBS with 10% glycerol and protease inhibitor cocktail (Roche). After centrifugation AMPK a1b1g1 in the supernatant was captured by immobilized glutathione (GE Healthcare), impurities were washed away with PBS and AMPK alpha1beta1gamma1 was eluted with PBS containing 20 mM reduced gluthathione. The protein buffer was then exchanged to PBS with 10% glycerol and protein concentration was determined by UV absorbance.
The white 384-well Optiplates (cat. no. 6007299) were purchased from PerkinElmer. The V9101 ADP-Glo Kinase Assay and ultra pure ATP (V915A) was purchased from Promega. The substrate for AMPK (NH2-HMRSAMSGLHLVKRR_CONH2) was purchased from Upstate (12-355).
Compounds were tested in either serial dilutions or single dose concentrations. The serial compound dilutions were prepared in 100% DMSO automatically. The final DMSO concentration in the assay was 0.1%.
The Compound Stock Solutions were 10 mM in 100% DMSO. The compounds were solubilised at room temperature.
In the 384-well plates 1.25 ul of test compound in assay buffer was mixed with 1.25 ul of AMPK and 1.25 μl of the peptide (final concentration of 1 μM) and 1.25 μl of ATP (final concentration of 30 μM), both dissolved in assay buffer. This step was followed by an incubation time of 60 min. Then 5 μl of ADP Glo Reagent was added. This was followed by 40 min of incubation. Then 10 μl of Kinase Detection Reagent was admixed. The plates were sealed and after an incubation period of 30 min, the luminescence signal was measured in an Envision reader. All incubation steps were accomplished at room temperature.
Each assay microtiter plate contained wells with vehicle controls instead of compound (0.1% DMSO in water) as reference for the low signal (100% CTL, low signal), and wells with serial dilutions of AMP (final 30 μM) as reference for high signals.
The luminescence signal generated was proportional to the ADP concentration produced and was correlated with AMPK activity. The analysis of the data was performed by the calculation of the percentage of ATP consumption of AMPK in the presence of the test compound compared to the consumption of ATP in the presence of AMPK without compound. (RLU(sample)/RLU(low control))*100[RLU=relative luminescence units]
An activator of the AMPK enzyme gave values above 100% CTL.
EC50 values based on dose response curves are calculated with the XIFIT software using the 4 Parameter Logistic Model or Sigmoidal Dose-Response Model.

Sequence of Activated AMPK complex 1 (containing alpha1beta1gamma1) (Q13131 whole entry): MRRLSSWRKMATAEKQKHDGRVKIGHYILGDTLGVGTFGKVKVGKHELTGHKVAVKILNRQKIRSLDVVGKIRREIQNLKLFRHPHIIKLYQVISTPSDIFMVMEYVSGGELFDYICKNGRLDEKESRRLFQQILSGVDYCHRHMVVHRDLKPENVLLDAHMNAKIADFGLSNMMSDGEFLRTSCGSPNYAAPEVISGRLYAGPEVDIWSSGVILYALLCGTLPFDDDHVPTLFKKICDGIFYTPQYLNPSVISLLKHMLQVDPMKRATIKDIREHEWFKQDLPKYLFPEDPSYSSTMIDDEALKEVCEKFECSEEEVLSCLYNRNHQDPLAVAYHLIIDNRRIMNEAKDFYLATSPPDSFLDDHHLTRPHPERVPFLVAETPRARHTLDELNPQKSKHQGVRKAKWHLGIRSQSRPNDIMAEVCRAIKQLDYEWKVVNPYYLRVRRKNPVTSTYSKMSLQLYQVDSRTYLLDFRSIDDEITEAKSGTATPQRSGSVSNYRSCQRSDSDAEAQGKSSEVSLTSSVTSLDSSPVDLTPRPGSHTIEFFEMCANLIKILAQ
Sequence of Activated AMPK complex 1 (containing alpha1beta1gamma1) (Q9Y478 whole entry): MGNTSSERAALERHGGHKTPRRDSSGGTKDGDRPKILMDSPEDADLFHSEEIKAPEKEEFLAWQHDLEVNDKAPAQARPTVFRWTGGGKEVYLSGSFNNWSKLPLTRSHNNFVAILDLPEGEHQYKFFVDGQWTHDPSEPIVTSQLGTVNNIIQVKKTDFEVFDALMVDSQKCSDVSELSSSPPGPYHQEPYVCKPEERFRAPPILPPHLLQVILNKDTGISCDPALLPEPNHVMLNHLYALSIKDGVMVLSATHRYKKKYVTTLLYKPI
Sequence of Activated AMPK complex 1 (containing alpha1beta1gamma1) (P54619 whole entry partner): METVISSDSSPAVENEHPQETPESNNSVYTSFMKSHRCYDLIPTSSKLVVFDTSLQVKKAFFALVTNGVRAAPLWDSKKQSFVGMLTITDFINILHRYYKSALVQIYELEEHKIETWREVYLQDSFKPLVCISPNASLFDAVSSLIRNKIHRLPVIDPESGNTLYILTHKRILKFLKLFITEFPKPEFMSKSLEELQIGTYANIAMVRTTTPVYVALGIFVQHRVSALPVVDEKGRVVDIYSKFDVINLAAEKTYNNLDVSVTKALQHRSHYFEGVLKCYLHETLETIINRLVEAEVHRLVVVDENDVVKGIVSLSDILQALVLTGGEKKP

SMILES	EC50 [nM]
CN(C)S(C)(=O)=NCc1ccc(-c2ccc(-c3nc4[nH]c(O[C@@H]5CO[C@H]6[C@@H]5OC[C@H]6O)nc4cc3Cl)cc2)cc1 (stereo partly drawn) [Example 20, N′—({4-[4-(2-{[(3R,3aR,6R,6aR)-6-Hydroxy-hexahydrofuro[3,2-b]furan-3-yl]oxy}-6-chloro-3H-imidazo[4,5-b]pyridin-5-yl)phenyl]phenyl}methyl)-N,N-dimethyl-methanesulfonimidamide]	82
CN(C)S(C)(=O)=Nc1ccc(-c2nc3[nH]c(O[C@@H]4CO[C@H]5[C@@H]4OC[C@H]5O)nc3cc2Cl)cc1 (stereo partly drawn) [Example 21, N′-[4-(2-{[(3R,3aR,6R,6aR)-6-Hydroxy-hexahydrofuro[3,2-b]furan-3-yl]oxy}-6-chloro-3H-imidazo[4,5-b]pyridin-5-yl)phenyl]-N,N-dimethyl-methanesulfonimidamide]	2900
